# In BindingDB's records for doi:10.1021/jm800476q (Bristol Myers Squibb, 2008):
# Biological target: Hepatocyte growth factor receptor (Homo sapiens, UniProt P08581)
# Assay: Met Kinase Inhibition Assay
# Details: pH 7.5; 30 °C
# Hepatocyte growth factor receptor, sequence (P08581 whole entry): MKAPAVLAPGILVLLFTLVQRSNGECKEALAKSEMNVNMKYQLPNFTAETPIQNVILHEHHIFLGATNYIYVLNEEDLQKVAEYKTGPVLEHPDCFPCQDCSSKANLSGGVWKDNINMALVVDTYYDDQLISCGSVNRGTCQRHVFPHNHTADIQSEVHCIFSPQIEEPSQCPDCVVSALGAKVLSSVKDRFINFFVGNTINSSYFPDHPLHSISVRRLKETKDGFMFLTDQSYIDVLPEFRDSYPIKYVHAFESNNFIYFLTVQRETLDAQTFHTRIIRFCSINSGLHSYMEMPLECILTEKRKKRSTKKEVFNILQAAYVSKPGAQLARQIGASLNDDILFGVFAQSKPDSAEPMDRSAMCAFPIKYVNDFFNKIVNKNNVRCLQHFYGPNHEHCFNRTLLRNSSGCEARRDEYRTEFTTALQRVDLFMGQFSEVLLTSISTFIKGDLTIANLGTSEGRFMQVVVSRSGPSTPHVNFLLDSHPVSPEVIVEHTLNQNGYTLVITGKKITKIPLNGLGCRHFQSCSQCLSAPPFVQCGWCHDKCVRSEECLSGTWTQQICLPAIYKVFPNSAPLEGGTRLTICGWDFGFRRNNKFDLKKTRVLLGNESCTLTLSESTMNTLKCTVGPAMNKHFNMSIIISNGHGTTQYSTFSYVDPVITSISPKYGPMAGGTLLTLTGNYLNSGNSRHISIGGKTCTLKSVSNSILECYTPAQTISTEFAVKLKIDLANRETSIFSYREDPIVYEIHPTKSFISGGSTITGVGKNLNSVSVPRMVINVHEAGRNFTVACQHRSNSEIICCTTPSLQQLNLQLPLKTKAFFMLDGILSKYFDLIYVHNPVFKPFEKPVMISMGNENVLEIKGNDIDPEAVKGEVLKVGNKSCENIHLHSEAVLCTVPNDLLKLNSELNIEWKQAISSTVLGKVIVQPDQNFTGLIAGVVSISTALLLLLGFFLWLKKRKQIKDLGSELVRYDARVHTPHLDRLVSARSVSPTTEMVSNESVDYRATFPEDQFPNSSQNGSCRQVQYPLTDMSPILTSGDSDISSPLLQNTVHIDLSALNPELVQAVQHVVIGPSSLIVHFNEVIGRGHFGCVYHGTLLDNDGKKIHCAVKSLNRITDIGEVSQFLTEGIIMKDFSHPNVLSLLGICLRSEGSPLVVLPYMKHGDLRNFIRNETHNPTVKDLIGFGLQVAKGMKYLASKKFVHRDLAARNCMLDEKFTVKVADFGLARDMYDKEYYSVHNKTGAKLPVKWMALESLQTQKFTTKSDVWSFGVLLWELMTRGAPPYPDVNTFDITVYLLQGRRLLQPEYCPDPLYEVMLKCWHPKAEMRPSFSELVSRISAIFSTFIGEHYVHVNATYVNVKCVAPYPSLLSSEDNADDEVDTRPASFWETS
row,Compound,IC50
1,"O=C(Nc1ccc(Oc2ccnc3[nH]ccc23)c(F)c1)c1cn(-c2ccc(Cl)c(F)c2)cc(-c2ccc(F)cc2)c1=O [1-(4-chloro-3-fluorophenyl)-N-(3-fluoro-4-{1H-pyrrolo[2,3-b]pyridin-4-yloxy}phenyl)-5-(4-fluorophenyl)-4-oxo-1,4-dihydropyridine-3-carboxamide]",5 nM
2,"COc1ccc(-n2cc(C(=O)Nc3ccc(Oc4ccnc5[nH]ccc45)c(F)c3)c(=O)c(-c3ccc(F)cc3)c2)cc1F [1-(3-fluoro-4-methoxyphenyl)-N-(3-fluoro-4-{1H-pyrrolo[2,3-b]pyridin-4-yloxy}phenyl)-5-(4-fluorophenyl)-4-oxo-1,4-dihydropyridine-3-carboxamide]",2.3 nM
